Data on seven compounds can be found in PubChem BioAssay AID485280 (The Scripps Research Institute Molecular Screening Center, 2010).

Activity calls are given as the source filed them.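 Rule for the calls: active = CC50 of 24 µM or less, the dose killing half of Huh-7.5 liver cells, showing toxicity to them; inactive = no cytotoxicity, CC50 exceeds 24 µM.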

This assay relates to Huh-7.5 viability, XTT absorbance. As to the kind of experiment: cytotoxicity in Huh-7.5 cells, late-stage follow-up, cytotoxicity control for HCV core dimerization inhibitor project, cell-based, absorbance (AID 485280).
`CCCCCC#CCC#CCC#CCC#CCCCC(=O)O`: the CC50 (commonly the concentration at which the toxic effect on the cells reaches its halfway point) was 179 µM (inactive). To `O=C(/C=C/c1ccc(Br)o1)OCc1nc2ccsc2c(=O)[nH]1` belongs 163 µM (inactive); to `CCN(CC(=O)Nc1c(F)cccc1F)C(=O)/C=C/c1ccc2ccccc2n1`, 148 µM (inactive). The same measure for `Cc1ccc(Cc2c(C)nc3nc(SCC(=O)NCCCN4CCCCCC4)nn3c2C)cc1`: 27.4 µM (inactive); for `Cc1ccccc1N1C(=O)/C(=C/c2ccco2)C(=O)NC1=S`: 143 µM (inactive). The same measure for `COCCN(C(=O)COC(=O)c1cc2c(s1)CCC2)c1c(N)n(Cc2ccccc2)c(=O)[nH]c1=O`: 141 µM (inactive). For the compound `COc1ccc(NC(=O)CN(C)C(=O)c2cc3c(s2)CCC3)cc1`, the CC50 was 123 µM (inactive).
